Earlier results, collected in patent US20050159471A1, “Compositions of a benzenesulfonamide or methylsulfonylbenzene cyclooxygenase-2 selective inhibitor and a cholinergic agent for the treatment of reduced blood flow or trauma to the central nervous system” (Pharmacia Corporation, priority 2003, published 2005).

Details: administered to subjects following stroke

For citicoline, which behavioral parameters is on record?
The behavioral parameters was “improvement in behavioral parameters”.

What about the infarction volume of the same substance?
The infarction volume was “decrease in infarction volume”.
